Data taken from patent US11718618B2, “Substituted pyrido[2,1-a]isoquinolines as VMAT2 inhibitors” (priority 2021, dated 2023).
Like-named read-outs stand apart in the source and are kept apart here.

Columns and labels:
[1] = molecular target: human VMAT2 (Homo sapiens (Human), UniProt Q05940); assay: VMAT2 radioligand binding, 3H-dihydrotetrabenazine competition on human platelet homogenate
Description: Examples of techniques for determining the capability of a compound to inhibit VMAT2 are provided below. The procedure was adapted from that described previously (see, e.g., Near, (1986), Mol. Pharmacol. 30: 252-57; Teng, et al., J. Neurochem. 71, 258-65, 1998). Homogenates from human platelets were prepared by homogenization and then washed by centrifugation as described previously (see, e.g., Hoare et al., (2003) Peptides 24:1881-97).
The human VMAT2 Ki values for the compounds listed in Table 15A and Table 15B were determined using the following procedures. Compound dilution series in DMSO were generated from either powder stocks by hand, or from DMSO stocks using serial dilution on a Vantage (Hamilton), or direct dilution using an Echo 655 (Beckman). In a total volume of 0.145 to 0.150 mL in low-binding 96-well plates (Corning #3605), twelve concentrations of test compound were competed against 10 nM ^3H-dihydrotetrabenezine (American Radiolabeled Chemicals) on human platelet homogenate (30 μg membrane protein per well) in VMAT2 binding buffer (Dulbecco's phosphate buffered saline, 1 mM EDTA, pH 7.4). Following incubation at 25° C. for 90 minutes, bound radioligand was collected by rapid filtration onto either GF/B or GF/C glass fiber filters, pretreated with 0.100 polyethylenimine, using either a Unifilter-96 Harvester (PerkinElmer) or Microlab Star (Hamilton). Following harvesting the filter plates were washed with 0.8 mL VMAT2 binding buffer, and bound radioligand was quantified by scintillation counting using a Topcount NXT or Microplate Counter Microbeta (PerkinElmer).

[2] = Stability of compounds in human liver microsomes; assay type: in vitro ADME; conditions: for CLint scaled at 0.5 μM / half-life at 0.5 μM: both sexes, pH 7.4; for CLint scaled at 0.5 μM: liver microsomes, calculated from HLM half-life, read-out: HLM Scaled Intrinsic Clearance; for CLint scaled at 0.5 μM / Predicted Max. Bioavailability (% F) / HLM Predicted Systemic Clearance: human; for half-life at 0.5 μM: 0.5 μM compound, 0.5 mg/mL human liver microsomes, 37° C., maxed at 420 minutes, read-out: HLM Elimination half-life (t1/2, min); for Predicted Max. Bioavailability (% F): predicted from HLM data; for HLM Predicted Systemic Clearance: scaled from HLM half-life (Obach method)
Description: A test compound (0.5 μM) was incubated with pooled mixed gender liver microsomes from humans (0.5 mg/mL total protein) at 37° C. in the presence of an NADPH-generating system containing 50 mM, pH 7.4 potassium phosphate buffer, 3 mM magnesium chloride, 1 mM EDTA, 1 mM NADP, 5 mM glusose-6-phosphate, and 1 Unit/mL glucose-6-phosphate dehydrogenase. All concentrations were relative to the final incubation volume of 125 μL. Incubations were conducted at 37° C. for 0, 5, 10, 20, 40, and 60 minutes in a water bath and terminated by rapid mixing with 150 μL of ice-cold acetonitrile containing internal standard. Precipitated proteins were removed by centrifugation prior to LC-MS/MS analysis. Aliquots of the resulting supernatant fractions were analyzed by LC-MS/MS monitoring for depletion of parent compound. The resultant peak area ratio versus time data was fitted to a non-linear regression using XLfit Scientific Curve Fitting Software (IDBS Ltd., Surrey, UK) and the elimination half-life (t1/2, min) was calculated from the slope. […] Additional values calculated included predicted extraction ratio and predicted maximum bioavailability.

[3] = 10 nM 3H-dihydrotetrabenazine, human platelet homogenate, 25° C., 90 minutes, read-out: VMAT2 Ki

Sequence of human VMAT2 (Q05940 whole entry): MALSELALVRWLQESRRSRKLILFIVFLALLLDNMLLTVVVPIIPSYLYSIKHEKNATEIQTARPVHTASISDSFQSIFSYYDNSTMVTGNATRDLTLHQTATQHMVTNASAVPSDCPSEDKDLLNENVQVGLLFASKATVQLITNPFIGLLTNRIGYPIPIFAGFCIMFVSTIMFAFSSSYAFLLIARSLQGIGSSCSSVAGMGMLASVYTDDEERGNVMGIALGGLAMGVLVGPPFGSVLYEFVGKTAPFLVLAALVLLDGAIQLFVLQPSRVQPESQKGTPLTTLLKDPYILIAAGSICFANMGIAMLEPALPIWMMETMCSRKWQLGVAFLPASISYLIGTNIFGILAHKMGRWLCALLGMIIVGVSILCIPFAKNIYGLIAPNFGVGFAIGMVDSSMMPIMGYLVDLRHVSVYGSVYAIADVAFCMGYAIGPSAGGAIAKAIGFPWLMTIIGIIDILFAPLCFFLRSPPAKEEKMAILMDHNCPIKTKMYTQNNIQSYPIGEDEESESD

SMILES	Ki [1, 3] [nM]	CLint scaled at 0.5 μM [2] [mL/min/kg]	half-life at 0.5 μM [2] [min]	Predicted Max. Bioavailability (% F) [2] [% F]	HLM Predicted Systemic Clearance [2] [mL/min/kg]	Ki [1] [nM]
COc1cc2c(cc1OCC#N)CCN1C[C@@H](CC(C)(C)C)[C@H](O)C[C@H]21 [Compound 4-24, 2-{[(2R,3R,11bR)-3-(2,2-dimethylpropyl)-2-hydroxy-10-methoxy-1H,2H,3H,4H,6H,7H,11bH-pyrido[2,1-a]isoquinolin-9-yl]oxy}acetonitrile]	35	10.7	117	65	6.97	
COc1cc2c(cc1OCC1(O)CCC1)CCN1C[C@@H](CC(C)(C)C)[C@H](O)C[C@H]21 [Compound 4-25, (2R,3R,11bR)-3-(2,2-dimethylpropyl)-9-[(1-hydroxycyclobutyl)methoxy]-10-methoxy-1H,2H,3H,4H,6H,7H,11bH-pyrido[2,1-a]isoquinolin-2-ol]	5.5	11.4	109	64	7.26	
COCCOc1cc2c(cc1OC)[C@H]1C[C@@H](O)[C@H](CC(C)(C)C)CN1CC2 [Compound 4-26, (2R,3R,11bR)-3-(2,2-dimethylpropyl)-10-methoxy-9-(2-methoxyethoxy)-1H,2H,3H,4H,6H,7H,11bH-pyrido[2,1-a]isoquinolin-2-ol]	14	14.2	88	58	8.32	
COc1cc2c(cc1OCCCF)CCN1C[C@@H](CC(C)(C)C)[C@H](O)C[C@H]21 [Compound 4-28, (2R,3R,11bR)-3-(2,2-dimethylpropyl)-9-(3-fluoropropoxy)-10-methoxy-1H,2H,3H,4H,6H,7H,11bH-pyrido[2,1-a]isoquinolin-2-ol]	0.48	31.8	39	39	12.28	
COc1cc2c(cc1OCC1(C#N)CC1)CCN1C[C@@H](CC(C)(C)C)[C@H](O)C[C@H]21 [Compound 4-29, 1-({[(2R,3R,11bR)-3-(2,2-dimethylpropyl)-2-hydroxy-10-methoxy-1H,2H,3H,4H,6H,7H,11bH-pyrido[2,1-a]isoquinolin-9-yl]oxy}methyl)cyclopropane-1-carbonitrile]	83	≤ 2.97	≥ 420	≥87	≤2.59	
COc1cc2c(cc1OC1COC1)CCN1C[C@@H](CC(C)(C)C)[C@H](O)C[C@H]21 [Compound 4-30, (2R,3R,11bR)-3-(2,2-dimethylpropyl)-10-methoxy-9-(oxetan-3-yloxy)-1H,2H,3H,4H,6H,7H,11bH-pyrido[2,1-a]isoquinolin-2-ol]	12	≤ 2.97	≥ 420	≥87	≤2.59	
COc1cc2c(cc1OC1CCC1)CCN1C[C@@H](CC(C)(C)C)[C@H](O)C[C@H]21 [Compound 4-32, (2R,3R,11bR)-9-cyclobutoxy-3-(2,2-dimethylpropyl)-10-methoxy-1H,2H,3H,4H,6H,7H,11bH-pyrido[2,1-a]isoquinolin-2-ol]	0.59	66.5	19	23	15.38	
COc1cc2c(cc1OCc1ncc(C)o1)CCN1C[C@@H](CC(C)(C)C)[C@H](O)C[C@H]21 [Compound 4-36, (2R,3R,11bR)-3-(2,2-dimethylpropyl)-10-methoxy-9-[(5-methyl-1,3-oxazol-2-yl)methoxy]-1H,2H,3H,4H,6H,7H,11bH-pyrido[2,1-a]isoquinolin-2-ol]	51	13.4	93	60	8.02	
COc1cc2c(cc1OC(C)C)CCN1C[C@@H](CC(C)(C)C)[C@H](O)C[C@H]21 [Compound 4-38, (2R,3R,11bR)-3-(2,2-dimethylpropyl)-10-methoxy-9-(propan-2-yloxy)-1H,2H,3H,4H,6H,7H,11bH-pyrido[2,1-a]isoquinolin-2-ol]	3.7	21.5	58	48	10.35	
[2H]C([2H])([2H])C([2H])([2H])Oc1cc2c(cc1OC)[C@H]1C[C@@H](O)[C@H](CC(C)(C)C)CN1CC2 [Compound 4-40, (2R,3R,11bR)-3-(2,2-dimethylpropyl)-9-(ethoxy-d5)-10-methoxy-1H,2H,3H,4H,6H,7H,11bH-pyrido[2,1-a]isoquinolin-2-ol]		23.9	52	46	10.88	1.4
COc1cc2c(cc1OCCOC1(C#N)CCOCC1)CCN1C[C@@H](CC(C)(C)C)[C@H](O)C[C@H]21 [Compound 4-41, 4-(2-{[(2R,3R,11bR)-3-(2,2-dimethylpropyl)-2-hydroxy-10-methoxy-1H,2H,3H,4H,6H,7H,11bH-pyrido[2,1-a]isoquinolin-9-yl]oxy}ethoxy)oxane-4-carbonitrile]	238	45.2	28	31	13.87	
COc1cc2c(cc1OCC1(C#N)CCC1)CCN1C[C@@H](CC(C)(C)C)[C@H](O)C[C@H]21 [Compound 4-42, 1-({[(2R,3R,11bR)-3-(2,2-dimethylpropyl)-2-hydroxy-10-methoxy-1H,2H,3H,4H,6H,7H,11bH-pyrido[2,1-a]isoquinolin-9-yl]oxy}methyl)cyclobutane-1-carbonitrile]	35	24.3	51	45	10.98	
COc1cc2c(cc1OCCOC(C#N)C1CC1)CCN1C[C@@H](CC(C)(C)C)[C@H](O)C[C@H]21 (stereo partly drawn) [Compound 4-43, 2-(2-{[(2R,3R,11bR)-3-(2,2-dimethylpropyl)-2-hydroxy-10-methoxy-1H,2H,3H,4H,6H,7H,11bH-pyrido[2,1-a]isoquinolin-9-yl]oxy}ethoxy)-2-cyclopropylacetonitrile]	4.8	68.8	18	23	15.5	
COc1cc2c(cc1OCCOC(C)(C)C#N)CCN1C[C@@H](CC(C)(C)C)[C@H](O)C[C@H]21 [Compound 4-44, 2-(2-{[(2R,3R,11bR)-3-(2,2-dimethylpropyl)-2-hydroxy-10-methoxy-1H,2H,3H,4H,6H,7H,11bH-pyrido[2,1-a]isoquinolin-9-yl]oxy}ethoxy)-2-methylpropanenitrile]	2.4	26.9	46	43	11.47	
COc1cc2c(cc1OCCC1(C#N)CC1)CCN1C[C@@H](CC(C)(C)C)[C@H](O)C[C@H]21 [Compound 4-45, 1-(2-{[(2R,3R,11bR)-3-(2,2-dimethylpropyl)-2-hydroxy-10-methoxy-1H,2H,3H,4H,6H,7H,11bH-pyrido[2,1-a]isoquinolin-9-yl]oxy}ethyl)cyclopropane-1-carbonitrile]	7.3	9.7	129	67	6.53	
